Assay results as given in US20250084063A1 (Incyte Corporation, priority 2023, published 2025).

Tests used:
Type in all cases: cell-based
MRGPRX2 [1] = molecular target: T1, MRGPRX2 (Homo sapiens, UniProt Q96LB1); assay: MRGPRX2 IP1 HTRF assay; set-up: host or cells: CHO-K1; conditions: CHO-K1 cells stably expressing human MRGPRX2; IP1 accumulation, agonist Cortistatin 14 1 μM
T1 sequence (Q96LB1 1-330): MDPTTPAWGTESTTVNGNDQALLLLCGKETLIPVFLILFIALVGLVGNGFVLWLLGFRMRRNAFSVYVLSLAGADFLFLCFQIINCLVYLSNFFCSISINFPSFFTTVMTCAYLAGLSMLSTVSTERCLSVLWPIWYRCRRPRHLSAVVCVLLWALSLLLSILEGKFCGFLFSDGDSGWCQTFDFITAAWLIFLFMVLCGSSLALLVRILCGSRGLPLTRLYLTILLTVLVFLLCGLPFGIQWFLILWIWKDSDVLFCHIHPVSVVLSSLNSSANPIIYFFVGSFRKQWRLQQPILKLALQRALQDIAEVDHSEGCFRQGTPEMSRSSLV

MRGPRX2 [2] = molecular target: T1, MRGPRX2; assay: MRGPRX2 β-Arrestin assay; set-up: host or cells: PathHunter CHO-K1; conditions: PathHunter CHO-K1 MRGPRX2 β-Arrestin cell line; agonist Cortistatin 14 0.25 μM
How it was run: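 PathHunter CHO-K1 cells expressing ProLink-tagged MRGPRX2 and enzyme-acceptor-tagged β-arrestin were preincubated with serially diluted compound 1 h at 37 °C, then stimulated with 0.25 μM cortistatin 14 (final) for 90 min. β-arrestin recruitment was read by luminescence; IC50 from 3- or 4-parameter Hill fits normalised to DMSO and reference antagonist controls.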

MRGPRX2 [3] = molecular target: T1, MRGPRX2; assay: MRGPRX2 FLIPR calcium mobilization assay; set-up: host or cells: CHO-K1; conditions: CHO-K1 cells stably expressing human MRGPRX2; Ca2+ release, agonist Cortistatin-14 at EC80
How it was run: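 CHO-K1 cells stably expressing human MRGPRX2, loaded with Calcium 6 dye, pre-incubated 30 min at room temperature with test compound in HBSS/20 mM HEPES pH 7.4. Then challenged with Cortistatin-14 at EC80; baseline-adjusted peak fluorescence over 110 s fitted to a Hill equation for IC50.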

Structure (SMILES) | IC50 (MRGPRX2 [1]) [nM] | IC50 (MRGPRX2 [2]) [nM] | IC50 (MRGPRX2 [3]) [nM]
NS(=O)(=O)N1CC(CNc2cc(C(F)(F)F)nc3ccc(Cl)cc23)(c2ccc(Cl)cn2)C1 [Example 29, 3-(((6-Chloro-2-(trifluoromethyl)quinolin-4-yl)amino)methyl)-3-(5-chloropyridin-2-yl)azetidine-1-sulfonamide] | 0.1 to 100 | 0.1 to 100 | 0.1 to 100
[2H]C([2H])([2H])NC(=O)N1CC(CNc2cc(C(F)(F)F)nc3ccc(Cl)cc23)(n2cc(Cl)cn2)C1 [Example 30, 3-(4-Chloro-1H-pyrazol-1-yl)-3-(((6-chloro-2-(trifluoromethyl)quinolin-4-yl)amino)methyl)-N-(methyl-d3)azetidine-1-carboxamide] | 0.1 to 100 | 0.1 to 100 | 0.1 to 100
NS(=O)(=O)N1CC(CNc2cc(C(F)(F)F)nc3ccc(Cl)cc23)(c2cccc(F)c2)C1 [Example 31, 3-(((6-Chloro-2-(trifluoromethyl)quinolin-4-yl)amino)methyl)-3-(3-fluorophenyl)azetidine-1-sulfonamide] | 0.1 to 100 | 0.1 to 100 | 0.1 to 100
NS(=O)(=O)N1CC(CNc2cc(C(F)(F)F)nc3ccc(Cl)cc23)(c2ccccc2)C1 [Example 38, 3-(((6-Chloro-2-(trifluoromethyl)quinolin-4-yl)amino)methyl)-3-phenylazetidine-1-sulfonamide] | 0.1 to 100 | 0.1 to 100 | 0.1 to 100
CNC(=O)N1CC(CNc2cc(C(F)(F)F)nc3ccc(Cl)cc23)(n2cc(F)cn2)C1 [Example 44, 3-(((6-Chloro-2-(trifluoromethyl)quinolin-4-yl)amino)methyl)-3-(4-fluoro-1H-pyrazol-1-yl)-N-methylazetidine-1-carboxamide] | 0.1 to 100 | 0.1 to 100 | 0.1 to 100

Continued, values first:

IC50 (MRGPRX2 [1]) [nM] | IC50 (MRGPRX2 [2]) [nM] | IC50 (MRGPRX2 [3]) [nM] | Structure (SMILES)
0.1 to 100 | 0.1 to 100 | 0.1 to 100 | O=C(NC1CC1)N1CC(CNc2cc(C(F)(F)F)nc3ccc(Cl)cc23)(n2cc(F)cn2)C1 [Example 27, 3-(((6-Chloro-2-(trifluoromethyl)quinolin-4-yl)amino)methyl)-N-cyclopropyl-3-(4-fluoro-1H-pyrazol-1-yl)azetidine-1-carboxamide]
0.1 to 100 | 0.1 to 100 | 0.1 to 100 | NC(=O)N1CC(CNc2cc(C(F)(F)F)nc3ccc(Cl)cc23)(n2cc(F)cn2)C1 [Example 28, 3-(((6-Chloro-2-(trifluoromethyl)quinolin-4-yl)amino)methyl)-3-(4-fluoro-1H-pyrazol-1-yl)azetidine-1-carboxamide]
0.1 to 100 | 0.1 to 100 | 0.1 to 100 | NS(=O)(=O)N1CC(CNc2cc(C(F)(F)F)nc3ccc(Cl)cc23)(c2ccc(F)cc2)C1 [Example 32, 3-(((6-Chloro-2-(trifluoromethyl)quinolin-4-yl)amino)methyl)-3-(4-fluorophenyl)azetidine-1-sulfonamide]
0.1 to 100 | 0.1 to 100 | 0.1 to 100 | NC(=O)N1CC(CNc2cc(C(F)(F)F)nc3ccc(Cl)cc23)(n2cc(Cl)cn2)C1 [Example 37, 3-(4-Chloro-1H-pyrazol-1-yl)-3-(((6-chloro-2-(trifluoromethyl)quinolin-4-yl)amino)methyl)azetidine-1-carboxamide]
0.1 to 100 | 0.1 to 100 | 0.1 to 100 | NC(=O)N1CC(CNc2cc(C(F)(F)F)nc3ccc(Cl)cc23)(n2cc(Br)cn2)C1 [Example 41, 3-(4-Bromo-1H-pyrazol-1-yl)-3-(((6-chloro-2-(trifluoromethyl)quinolin-4-yl)amino)methyl)azetidine-1-carboxamide]
0.1 to 100 | 0.1 to 100 | 0.1 to 100 | NS(=O)(=O)N1CC(CNc2cc(C(F)(F)F)nc3ccc(Cl)cc23)(c2ncccc2F)C1 [Example 43, 3-(((6-Chloro-2-(trifluoromethyl)quinolin-4-yl)amino)methyl)-3-(3-fluoropyridin-2-yl)azetidine-1-sulfonamide]
